{"source": "patent US20260079084A1", "about": "“COMPOUND, EXTRACELLULAR VESICLE STAINING AGENT, AND FLUORESCENT STAINING METHOD FOR EXTRACELLULAR VESICLES” (National University Corporation Tokai National Higher …, priority 2022, published 2026)", "key": {"[1]": {"system": "milk-derived extracellular vesicles", "experiment": "Gel filtration comparison with compound of Patent Literature 1 (Example 17 / Comparative example 4)", "settings": "reaction time 3 hours at room temperature", "text": "The present applicant has disclosed GIF-2250 illustrated below in Patent Literature 1. GIF-2250 differs from the compounds of the present application in that the portion indicated by “→” is NH. First, the effect of this difference in structure provided on size separation using gel filtration was observed. Note that the synthesis procedure of GIF-2250 is disclosed in Patent Literature 1. The features disclosed in Patent Literature 1 are incorporated in the present specification by reference in its entirety.\nExperiments were performed in the same procedure as in Example 10 except that GIF-2276 and GIF-2250 (Comparative example 4), which is disclosed in Patent Literature 1, were used and the reaction time was 3 hours at room temperature. FIG. 8 illustrates a graph in which respective experimental results are overlapped."}, "[2]": {"system": "milk-derived extracellular vesicles", "experiment": "Staining of milk-derived extracellular vesicles, analysis by high-performance liquid chromatography gel filtration system (Example 10 / Comparative example 1)", "settings": "staining agent 1 μM, room temperature 12 hours", "description": "Commercially available pasteurized milk (by Seki milk or Takanashi) of 1 L was centrifuged at 8000 rpm for 30 minutes, and the supernatant was filtrated by a coffee filter. Subsequently, acetic acid was added thereto to be 1%, and the mixture was further centrifuged at 8000 rpm for 30 minutes. The supernatant thereof was further filtrated by a coffee filter. The liquid obtained after the filtration was filtrated by a filter of 0.45 μm (by Sartorius), and the filtrate was filtrated by a filter of 0.1 μm (by Sartorius). Since extracellular vesicles remain on the filter of 0.1 μm, the extracellular vesicles were washed with 5 mL of phosphate buffer solution three times. Eventually, extracellular vesicles were collected with 1 mL of phosphate buffer solution. Further, 10 μL of the purified extracellular vesicle liquid was diluted with 40 μL of phosphate buffer solution (hereafter, referred to as “extracellular vesicle preparation liquid”)\nCompounds 1 to 9 synthesized in Examples 1 to 9 were diluted with DMSO to produce a staining agent used in Example 10.\nExoSparkler Exosome Membrane Labeling Kit-Red (ExoSP Model No. EX02, by Dojin) was diluted with a DMSO solution in accordance with the instructions for use to produce a staining agent of Comparative example 1.\nThe staining agent produced in Example 10 was added to an extracellular vesicle preparation liquid so that the final concentration of the staining agent became 1 μM. Further, 1 μL of the staining agent produced in Comparative example 1 was added to an extracellular vesicle preparation liquid. In Example 10 and Comparative example 1, the staining agent was added to the extracellular vesicle preparation liquid and then allowed to stand at room temperature for 12 hours. After 12 hours elapsed, 10 μL of the reaction product was analyzed by a high-performance liquid chromatography gel filtration system. […] Detection was performed on ExoSP at 560 nm for excitation and 600 nm for fluorescence detection and was performed on the compounds synthesized in Examples 1 to 8 at 480 nm for excitation and 530 nm for fluorescence detection. […]"}, "[3]": {"system": "milk-derived extracellular vesicles", "experiment": "Staining of milk-derived extracellular vesicles with heat treatment, gel filtration analysis (Example 11 / Comparative example 2)", "settings": "untreated vs 80° C. for 5 minutes or 15 minutes", "description": "Experiments were performed in the same procedure as in Example 10 except that, after the staining agent was added to the extracellular vesicle preparation liquid in Example 10, the mixture was immediately analyzed with a column (untreated), the mixture was analyzed after treated at 80° C. for 5 minutes, or the mixture was analyzed after treated at 80° C. for 15 minutes. Note that the compounds used in the experiments of Example 11 are labeled with the GIF numbers in the graphs.\nExperiments were performed in the same procedure as in Comparative example 1 except that, after the staining agent was added to the extracellular vesicle preparation liquid in Comparative example 1, the mixture was immediately analyzed with a column (untreated), the mixture was analyzed after treated at 80° C. for 5 minutes, or the mixture was analyzed after treated at 80° C. for 15 minutes."}, "HEK293 cells [4]": {"system": "HEK293 cells", "experiment": "Tracking of labeled milk-derived extracellular vesicles introduced into cells (Example 15)", "type": "cell-based", "description": "(§1) The milk-derived extracellular vesicles (exosomes) prepared in the procedure of Example 10 were stained with GIF-2276 at room temperature for 12 hours to label the extracellular vesicles. Unreacted GIF-2276 was removed by Microcon 300K (by Millipore). Lysosomes in HEK293 cells (ThermoFisher) were labeled with LysoBrite Red, and GIF-2276-labeled milk-derived extracellular vesicles were added thereto. After 3 hours, the mixture was observed by a microscope. FIG. 6 illustrates the result. The upper left “2276” in FIG. 6 is a fluorescent photograph of the extracellular vesicles labeled with GIF-2276. The upper right “LysoBright” in FIG. 6 is a fluorescent photograph of the lysosomes labeled with LysoBrite Red. The lower left in FIG. 6 is a photograph obtained by merging the fluorescent photograph of the extracellular vesicles labeled with GIF-2276 and the fluorescent photograph of the lysosomes labeled with LysoBrite Red. The lower right in FIG. 6 is a photograph of HEK293 cells captured in visible light."}, "HEK293 cells [5]": {"system": "HEK293 cells", "experiment": "Tracking of labeled lactic acid bacteria (Yakult)-derived extracellular vesicles introduced into cells (Example 16)", "type": "cell-based", "description": "as §1\nExperiments were performed in the same procedure as in Example 15 except that, instead of milk-derived extracellular vesicles, lactic acid bacteria (Yakult)-derived extracellular vesicles were used. FIG. 7 illustrates the result."}, "[6]": {"system": "extracellular vesicles of pasteurized milk", "experiment": "Correlation between gel filtration and plate reader detection of extracellular vesicles (Example 17 (2))", "description": "Patent Literature 1 discloses that the use of GIF-2250 enables quantification of extracellular vesicles by a plate reader. The correlation between detection of extracellular vesicles by a plate reader with the use of GIF-2250 and detection of extracellular vesicles by gel filtration with the use of GIF-2276 synthesized in Example 1 was examined.\nPasteurized milk (Takanashi) was heated at 60, 70, and 80° C. for 30 minutes and cooled back to room temperature. The extracellular vesicles were then prepared by the procedure described in Example 10, and the pasteurized milk was added thereto so that the final concentration of GIF-2276 synthesized in Example 1 became 1 μM to label the extracellular vesicles. The mixture was analyzed by a high-performance liquid chromatography gel filtration system to find the area of the peak. Extracellular vesicles prepared in the same manner reacted with 3 μM of GIF-2250 to find the fluorescence quantity by using a fluorescent plate reader. Respective values were plotted to find a correlation."}, "[7]": {"system": "lactic acid bacteria (Yakult)-derived extracellular vesicles", "experiment": "Staining of lactic acid bacteria (Yakult)-derived extracellular vesicles, gel filtration analysis (Example 14 / Comparative example 3)", "settings": "staining agent 1 μM, room temperature 12 hours", "description": "The staining agent produced in Example 10 was added to an extracellular vesicle preparation liquid so that the final concentration of the staining agent became 1 μM. Further, 1 μL of the staining agent produced in Comparative example 1 was added to an extracellular vesicle preparation liquid. In Example 10 and Comparative example 1, the staining agent was added to the extracellular vesicle preparation liquid and then allowed to stand at room temperature for 12 hours. After 12 hours elapsed, 10 μL of the reaction product was analyzed by a high-performance liquid chromatography gel filtration system. As the eluent for the column, 10 mM of Tris (pH 6.8), 0.25 mM of EDTA, and 50 mM of NaCl were used. Detection was performed on ExoSP at 560 nm for excitation and 600 nm for fluorescence detection and was performed on the compounds synthesized in Examples 1 to 8 at 480 nm for excitation and 530 nm for fluorescence detection. A column having 3 cm of Gen 2 qEV original/70 nm (by iZQN) and Shodex OHpak SB-807 (by Showa denko) connected to each other was used.\nNext, experiments using various lactic fermenting beverages were performed. As the lactic fermenting beverage, A: Yakult (by Yakult), B: Onakayorokobu lactic acid bacteria (by Kurashimoa), and C: Pirkle (by Nissin Foods) were used. Each 500 mL of the lactic fermenting beverages of A to C listed above was centrifuged at 8000 rpm for 30 minutes, and the supernatant was filtrated by a coffee filter. The liquid obtained after the filtration was filtrated by a filter of 0.45 μm (by Sartorius), and the filtrate was filtrated by a filter of 0.033 μm (by GVS). Since extracellular vesicles remain on the filter of 0.033 μm, the extracellular vesicles were washed with 5 mL of phosphate buffer solution three times. Eventually, extracellular vesicles were collected with 1 mL of phosphate buffer solution. […]"}}, "data": [{"smiles": "CN(C)c1ccc(CCCN(C)C2CCc3cc(OCCNc4ccc([N+](=O)[O-])c5nonc45)ccc32)cc1", "note": "(stereo not shown) [GIF-2250, reference compound]", "values": [{"measurement": "peak of milk-derived extracellular vesicles in gel filtration", "setting": "[1]", "value": "no peak of milk-derived extracellular vesicles was found"}]}, {"smiles": "CN(C)c1ccc(CCCN(C)C2CCc3cc(OCCOc4ccc([N+](=O)[O-])c5nonc45)ccc32)cc1", "note": "(stereo not shown) [GIF-2276]", "values": [{"measurement": "sensitivity order in staining of pasteurized milk extracellular vesicles", "setting": "[2]", "value": "highest in the order of GIF-2281, GIF-2280, and GIF-2276"}, {"measurement": "effect of heat treatment on fluorescence intensity", "setting": "[3]", "value": "significant increase in the fluorescence intensity due to heat treatment"}, {"measurement": "tracking of labeled extracellular vesicles in cells", "setting": "HEK293 cells [4]; HEK293 cells, after 3 hours", "value": "can be tracked in the cells to which the same was introduced"}, {"measurement": "localization of signals of labeled extracellular vesicles in cells", "setting": "HEK293 cells [4]; lysosomes labeled with LysoBrite Red, microscope after 3 hours", "value": "most of signals from extracellular vesicles are localized in the lysosomes"}, {"measurement": "tracking of labeled extracellular vesicles in cells", "setting": "HEK293 cells [5]", "value": "can be tracked in the cells to which the same was introduced"}, {"measurement": "peak of milk-derived extracellular vesicles in gel filtration", "setting": "[1]", "value": "a clear peak due to the size of milk-derived extracellular vesicles was found"}, {"measurement": "quantification of extracellular vesicles by plate reader", "setting": "[6]; depiction omitted", "value": "successfully quantified"}, {"measurement": "correlation of gel filtration peak area (GIF-2276) with plate reader fluorescence intensity (GIF-2250)", "setting": "[6]; milk heated at 60, 70, 80° C. for 30 minutes, GIF-2276 1 μM, GIF-2250 3 μM", "value": "high correlation"}]}, {"smiles": "CN(C)c1ccc(CCCN(C)C2CCc3cc(OCCOCCOCCOCCOc4ccc([N+](=O)[O-])c5nonc45)ccc32)cc1", "note": "(stereo not shown) [GIF-2282]", "values": [{"measurement": "sensitivity order in staining of lactic acid bacteria extracellular vesicles", "setting": "[7]", "value": "highest in the order of GIF-2277, GIF-2281, and GIF-2282"}]}, {"smiles": "CN(C)c1ccc(CCCN(C)C2CCc3cc(OCCOCCOc4ccc([N+](=O)[O-])c5nonc45)ccc32)cc1", "note": "(stereo not shown) [GIF-2277]", "values": [{"measurement": "effect of heat treatment on fluorescence intensity", "setting": "[3]", "value": "significant increase in the fluorescence intensity due to heat treatment"}, {"measurement": "sensitivity order in staining of lactic acid bacteria extracellular vesicles", "setting": "[7]", "value": "highest in the order of GIF-2277, GIF-2281, and GIF-2282"}]}, {"smiles": "CN(C)c1ccc(CCCN(C)C2CCc3cc(OCCCCCCOc4ccc([N+](=O)[O-])c5nonc45)ccc32)cc1", "note": "(stereo not shown) [GIF-2280]", "values": [{"measurement": "sensitivity order in staining of pasteurized milk extracellular vesicles", "setting": "[2]", "value": "highest in the order of GIF-2281, GIF-2280, and GIF-2276"}]}, {"smiles": "CN(CCCc1ccc(N(C)C)cc1)Cc1ccc(OCCOc2ccc([N+](=O)[O-])c3nonc23)cc1", "note": "[GIF-2281]", "values": [{"measurement": "sensitivity order in staining of pasteurized milk extracellular vesicles", "setting": "[2]", "value": "highest in the order of GIF-2281, GIF-2280, and GIF-2276"}, {"measurement": "sensitivity order in staining of lactic acid bacteria extracellular vesicles", "setting": "[7]", "value": "highest in the order of GIF-2277, GIF-2281, and GIF-2282"}]}, {"smiles": "CN(C)c1ccc(CN(C)C2CCc3cc(OCCn4cc(CCOc5ccc([N+](=O)[O-])c6nonc56)nn4)ccc32)cc1", "note": "(stereo not shown) [GIF-2274]", "values": [{"measurement": "effect of heat treatment on fluorescence intensity", "setting": "[3]", "value": "significant increase in the fluorescence intensity due to heat treatment"}]}]}
